Measurements taken from PMC5522529, “Mechanisms of Paradoxical Activation of AMPK by the Kinase Inhibitors SU6656 and Sorafenib” (Cell Chemical Biology, 2017).

Assays:
Type in all cases: cell-based
[1] = biological target: T1, AMPK-α1 AA mutant (Homo sapiens, UniProt Q13131, K40A/K42A); assay: AMPK activity of FLAG-tagged AMPK-α1 K40A/K42A (AA) mutant expressed in HEK293 cells; details: AA mutant FLAG-α1; same concentrations, 1 hr
T1 construct: Plasmid encoding full-length human AMPK-α1; expressed in transfected cells; host or cells: HEK293
T1 sequence (Q13131 whole entry K40A/K42A): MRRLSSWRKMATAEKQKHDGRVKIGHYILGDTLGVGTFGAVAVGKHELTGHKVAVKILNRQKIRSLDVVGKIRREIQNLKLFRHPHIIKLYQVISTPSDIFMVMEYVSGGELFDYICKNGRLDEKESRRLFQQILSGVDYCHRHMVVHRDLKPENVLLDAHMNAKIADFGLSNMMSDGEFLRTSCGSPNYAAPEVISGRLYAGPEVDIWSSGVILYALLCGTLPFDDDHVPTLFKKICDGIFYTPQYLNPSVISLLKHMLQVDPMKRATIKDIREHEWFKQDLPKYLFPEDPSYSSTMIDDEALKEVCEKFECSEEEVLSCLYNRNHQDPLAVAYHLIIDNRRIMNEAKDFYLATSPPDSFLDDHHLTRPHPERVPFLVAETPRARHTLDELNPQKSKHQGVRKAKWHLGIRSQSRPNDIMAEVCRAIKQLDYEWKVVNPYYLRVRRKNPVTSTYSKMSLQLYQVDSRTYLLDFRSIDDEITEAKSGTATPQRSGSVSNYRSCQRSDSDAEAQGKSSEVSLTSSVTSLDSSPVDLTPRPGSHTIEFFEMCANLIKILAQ
T1 sequence (P54619 whole entry partner): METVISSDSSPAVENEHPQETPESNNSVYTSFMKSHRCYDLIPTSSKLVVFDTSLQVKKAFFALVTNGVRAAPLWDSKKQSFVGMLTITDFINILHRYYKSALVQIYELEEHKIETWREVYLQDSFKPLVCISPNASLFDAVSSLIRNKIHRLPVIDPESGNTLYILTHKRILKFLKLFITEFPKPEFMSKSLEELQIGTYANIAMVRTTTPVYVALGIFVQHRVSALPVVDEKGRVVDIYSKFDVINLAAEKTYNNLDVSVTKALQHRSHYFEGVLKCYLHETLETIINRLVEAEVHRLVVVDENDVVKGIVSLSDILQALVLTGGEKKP
From the text: (§1) (B) Western blotting of the same preparations as in (A). […] (D) Allosteric activation of WT and mutant α1β1γ1 complexes by MT 63-78, curve fitting as for (C). […] (E) Allosteric activation of WT and mutant α1β1γ1 complexes by AMP. Data were fitted to the equation for activation/inactivation by AMP ([Gowans et al., 2013]). […] (F) Activation of WT and AA mutant by various AMPK activators in HEK293 cells. […] FLAG-tagged complexes were isolated by immunoprecipitation and AMPK activity determined (mean ± SEM, n = 2).
(§2) We next expressed the FLAG-tagged WT or AA mutant of AMPK-α1 by transient transfection in HEK293 cells, treated with various agents, and measured AMPK activity in anti-FLAG immunoprecipitates. In Figure 4F, the results are expressed as absolute activities and are accompanied by blots showing Thr172 phosphorylation.

[2] = biological target: T2, AMPK-α1 (WT) (Homo sapiens, UniProt Q13131); assay: AMPK activity of FLAG-tagged AMPK-α1 (WT) expressed in HEK293 cells; details: 1 hr; for AMPK activity and Thr172 phosphorylation: WT FLAG-α1, A769662 300 μM, berberine 300 μM, phenformin 10 mM, troglitazone 100 μM, oligomycin 1 μM, SU6656 100 μM; for AMPK activity: WT FLAG-α1 (comparison with AT mutant)
T2 construct: we expressed FLAG-tagged full-length AMPK-α1 either as the WT or the AT mutant; expressed in transfected cells; host or cells: HEK293
T2 sequence (Q13131 whole entry): as the sequence (Q13131 whole entry K40A/K42A) above, with A40K, A42K counted along it
T2 sequence (P54619 whole entry partner): as the sequence (P54619 whole entry partner) above
From the text: as §1, §2
The α1-KD was precipitated using anti-FLAG and endogenous AMPK complexes using anti-α1 antibody, and activity determined. […] (B) Western blots (n = 2) using the indicated antibodies; samples from experiment in (A). (C) DNAs encoding FLAG-tagged AMPK-α1 (WT or AT mutant) were expressed by transient transfection in HEK293 cells, the cells treated with increasing concentrations of SU6656 for 1 hr, AMPK complexes precipitated with anti-FLAG, and activity measured.

[3] = biological target: T3, endogenous full-length α1 complexes (Homo sapiens, UniProt Q13131); assay: Activity of endogenous full-length α1 complexes in HEK293 cells; details: 1 hr
T3 construct: endogenous in cells
T3 sequence (Q13131 whole entry): as the sequence (Q13131 whole entry K40A/K42A) above, with A40K, A42K counted along it
T3 sequence (P54619 whole entry partner): as the sequence (P54619 whole entry partner) above
From the text: (§3) We next expressed an FLAG-tagged α1 kinase domain (α1-KD, residues 1–312) by transient transfection in HEK293 cells, treated the cells with various AMPK activators, and then assayed both the expressed α1-KD (precipitated using anti-FLAG) and endogenous full-length α1 complexes (precipitated using anti-α1 antibodies recognizing an epitope outside the α1-KD). […] This was also observed with A23187, as expected since this ionophore increases intracellular Ca^2+ and activates the alternate upstream kinase CaMKK2.
(§4) The α1-KD was precipitated using anti-FLAG and endogenous AMPK complexes using anti-α1 antibody, and activity determined. Results (mean ± SD, n = 2) are expressed relative to activities in DMSO controls. (B) Western blots (n = 2) using the indicated antibodies; samples from experiment in (A). (C) DNAs encoding FLAG-tagged AMPK-α1 (WT or AT mutant) were expressed by transient transfection in HEK293 cells, the cells treated with increasing concentrations of SU6656 for 1 hr, AMPK complexes precipitated with anti-FLAG, and activity measured. Results (mean ± SD, n = 3) are expressed relative to the DMSO control. […] Results (mean ± SD, n = 3) are expressed relative to the DMSO control. **p < 0.01, ***p < 0.001, ****p < 0.0001, ^†††p < 0.001; ns, not significant.

[4] = biological target: human AMPK-α2 (WT) (Homo sapiens, UniProt P54646); assay: AMPK activity of FLAG-tagged WT AMPK-α2 expressed in HEK293 cells; details: SU6656 100 μM, phenformin 10 mM, A23187 10 μM, 1 hr
Sequence of human AMPK-α2 (WT) (P54646 whole entry, the tested form may be a part): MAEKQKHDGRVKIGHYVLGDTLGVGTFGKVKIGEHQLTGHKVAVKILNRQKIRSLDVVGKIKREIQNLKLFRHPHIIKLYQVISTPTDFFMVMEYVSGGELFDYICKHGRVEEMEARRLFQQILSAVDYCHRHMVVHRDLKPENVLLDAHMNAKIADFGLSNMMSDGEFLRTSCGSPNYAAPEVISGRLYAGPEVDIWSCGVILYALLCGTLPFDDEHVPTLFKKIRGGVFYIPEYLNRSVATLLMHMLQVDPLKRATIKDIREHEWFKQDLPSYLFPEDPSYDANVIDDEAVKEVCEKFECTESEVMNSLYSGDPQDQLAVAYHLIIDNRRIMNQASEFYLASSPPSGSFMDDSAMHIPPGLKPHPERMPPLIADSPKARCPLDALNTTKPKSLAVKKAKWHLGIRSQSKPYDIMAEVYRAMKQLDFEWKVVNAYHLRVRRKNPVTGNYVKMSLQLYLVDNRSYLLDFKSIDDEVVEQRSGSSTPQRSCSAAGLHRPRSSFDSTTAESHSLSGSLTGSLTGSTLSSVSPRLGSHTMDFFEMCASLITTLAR
Sequence of human AMPK-α2 (WT) (P54619 whole entry partner, the tested form may be a part): as the sequence (P54619 whole entry partner) above
Procedure: (§5) Top: AMPK activity (mean ± SEM, n = 4); bottom: western blots showing phosphorylation of Thr172 on AMPK, and of ERK1/2, in cells treated with DMSO (control), SU6656 (100 μM), or PP2 (100 nM) (n = 2). (B) As (A), but in SYF cells. (C) HeLa cells were transfected with DNAs encoding GFP alone, or GFP fused to WT, Y261F/Y365F (FF), or Y36F/Y261F/Y365F (FFF) mutants of LKB1; cells were treated with increasing concentrations of SU6656 for 1 hr and AMPK activity determined (mean ± SEM, n = 4). See also Figure S1. (D) HEK293 cells were transfected with DNAs encoding FLAG-tagged AMPK-α2 with or without a Y436F mutation. Cells were incubated with DMSO (control), 100 μM SU6656, 10 mM phenformin, or 10 μM A23187 for 1 hr; AMPK complexes were immunoprecipitated using anti-FLAG antibody and assayed. The top panels show kinase activities (mean ± SD, n = 3); the bottom panels show blots from the same experiment (n = 2). In all panels, asterisks indicate significant differences from DMSO controls; in (D), there were no significant differences between the WT and Y463F mutant. **p < 0.01, ****p < 0.0001.

[5] = biological target: T4, α1 kinase domain (α1-KD, residues 1–312) (Homo sapiens, UniProt Q13131); assay: Activity of FLAG-tagged α1 kinase domain expressed in HEK293 cells; details: 1 hr
T4 construct: amplifying residues 1-312 with an N-terminal FLAG-tag; expressed in transfected cells; host or cells: HEK293 (transient transfection, pcDNA5 FRT)
T4 sequence (Q13131 1-312): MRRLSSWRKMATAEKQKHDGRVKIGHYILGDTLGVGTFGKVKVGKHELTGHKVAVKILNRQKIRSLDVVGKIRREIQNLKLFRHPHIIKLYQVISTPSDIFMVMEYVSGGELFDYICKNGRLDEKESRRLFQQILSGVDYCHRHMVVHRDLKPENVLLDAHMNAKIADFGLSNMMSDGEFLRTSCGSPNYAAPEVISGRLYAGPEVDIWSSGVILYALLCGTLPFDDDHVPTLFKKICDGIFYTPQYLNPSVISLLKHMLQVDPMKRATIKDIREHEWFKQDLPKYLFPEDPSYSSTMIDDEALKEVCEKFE
From the text: as §3, §4
A plasmid encoding the AMPK-α2 kinase domain (α2-KD) was made by amplifying residues 1-310 with 5' BamH1 and 3' Xho1 sites, the resulting PCR product was cloned into pGEX6P2. Point mutations were generated using the Quikchange II site-directed mutagenesis kit (Stratagene) and confirmed by DNA sequencing.

[6] = biological target: T5, human AMPK-α2 Y436F mutant (Homo sapiens, UniProt P54646, Y436F); assay: AMPK activity of FLAG-tagged Y436F AMPK-α2 expressed in HEK293 cells; details: SU6656 100 μM, phenformin 10 mM, A23187 10 μM, 1 hr
T5 construct: expressed in transfected cells; host or cells: HEK293 (transient transfection)
T5 sequence (P54646 whole entry Y436F): as the sequence (P54646 whole entry, the tested form may be a part) above, with Y436F counted along it
T5 sequence (P54619 whole entry partner): as the sequence (P54619 whole entry partner) above
Procedure: as §5

[7] = biological target: T6, AMPK-α1 AT mutant (Homo sapiens, UniProt Q13131, A167T); assay: AMPK activity of FLAG-tagged AMPK-α1 AT mutant expressed in HEK293 cells; details: AT mutant FLAG-α1, 1 hr
T6 construct: we expressed FLAG-tagged full-length AMPK-α1 either as the WT or the AT mutant; expressed in transfected cells; host or cells: HEK293 (transient transfection)
T6 sequence (Q13131 whole entry A167T): as the sequence (Q13131 whole entry K40A/K42A) above, with A40K, A42K, A167T counted along it
T6 sequence (P54619 whole entry partner): as the sequence (P54619 whole entry partner) above
From the text: as §4
To confirm that it acted by binding at the catalytic site, we expressed FLAG-tagged full-length AMPK-α1 either as the WT or the AT mutant.

Structure (SMILES) | effect of AA mutation on AMPK activation [1] | AMPK activity and Thr172 phosphorylation [2] | kinase activity / Thr172 phosphorylation [3] | AMPK activity in anti-FLAG immunoprecipitates [4] | kinase activity / Thr172 phosphorylation [5] | AMPK activity [2] | AMPK activation response with Y436F mutation [6] | AMPK activity [7]
CC[C@H]1/C=C/C=C/C[C@@H](C)[C@H](O)[C@@](C)(O)C(=O)[C@@H](C)[C@H](O)[C@@H](C)C(=O)[C@@H](C)[C@H](O)[C@@H](C)/C=C/C(=O)O[C@@H]2[C@H](C)[C@H](CC1)O[C@]1(CC[C@H](C)[C@H](C[C@@H](C)O)O1)[C@H]2C [oligomycin] | abolished | activated AMPK and caused Thr172 phosphorylation | – | – | – | – | – | –
CNc1ccc2oc(C[C@H]3O[C@@]4(CC[C@H]3C)O[C@H]([C@H](C)C(=O)c3ccc[nH]3)[C@H](C)C[C@H]4C)nc2c1C(=O)O [A23187] | – | – | also observed | all activated AMPK | also observed | activated equally well | unaffected by the Y436F mutation | activated equally well
[H]/N=C(/N)N/C(=N/[H])NCCc1ccccc1 [phenformin] | abolished | activated AMPK and caused Thr172 phosphorylation | doing this with the endogenous complexes | all activated AMPK | failed to activate or cause Thr172 phosphorylation | activated equally well | unaffected by the Y436F mutation | activated equally well
